According to US20140199401A1, “EXTENDED RELEASE PHARMACEUTICAL COMPOSITIONS OF FESOTERODINE” (CADILA HEALTHCARE LIMITED, priority 2011, published 2014):
Counter-ions that a name gives are not always drawn.

Experiment: Particle size data of fesoterodine fumarate
Assay type: physicochemical
Experimental: (Particle size data of Fesoterodine fumarate: D10-47.3μ; D50-156μ; D90-293μ) • Procedure: Mixture of fesoterodine fumarate, microcrystalline cellulose, corn starch, lactose monohydrate, hypromellose, and povidone K 30 was lubricated with magnesium stearate and talc. The lubricated blend was then compressed into tablets. The tablets were finally coated with Opadry dispersion in purified water.
The formulation was prepared with the same excipients in the same quantity as used in Example 1. Only difference is in the particle size of fesoterodine fumarate used in that formulation. In this comparative example, particle size of fesoterodine fumarate is used such that D10-2.67μ; D50-34.48μ; D90-125.3μ.

[1] = fesoterodine fumarate used in Comparative Example 1
[2] = fesoterodine fumarate used in Example 1

Particle size D10 [1]: 2.67 μ | Particle size D50 [1]: 34.48 μ | Particle size D90 [1]: 125.3 μ | Particle size D10 [2]: 47.3 μ | Particle size D50 [2]: 156 μ | Particle size D90 [2]: 293 μ
Compound: CC(C)C(=O)Oc1ccc(CO)cc1[C@H](CCN(C(C)C)C(C)C)c1ccccc1 [Fesoterodine fumarate, 2-[(1R)-3-(diisopropylamino)-1-phenylpropyl]-4-(hydroxymethyl)phenyl isobutyrate]
